Experimental data published in patent US20250345277A1, “Ionizable Liposome, Preparation Thereof, and Application Thereof in Gene Delivery” (MAXIRNA (ZHEJIANG) TECHNOLOGY CO. LTD., priority 2021, published 2025).

Tests used:
TIL cells = test: In vitro transfection of TIL cells with EGFP mRNA LNP preparation; format: cell-based, human
Source text: The description is based on peripheral blood mononuclear cells PBMC (Shanghai Oribiotech Co., Ltd.), human peripheral blood leukemia T cell Jurkat (ATCC), tumor infiltrating lymphocyte TIL (isolated from resected tumor tissue of a liver cancer patient, the preparation method refers to CN114763530A), mouse bone marrow-derived dendritic cells DC2.4 (Cell Bank of the Chinese Academy of Sciences), and Chinese hamster ovary cells CHO (ATCC) were used as verified cell lines for liposome transfection. PBMC, Jurkat, and TIL cells grew in suspension, while DC2.4 and CHO cells grew by adherent culture. All the operation steps of cell culture must strictly abide by the prescribed procedures, and sterile reagents is used to perform aseptic operations under a sterile workbench. The main steps are as follows: • 1) Cell recovery: the preserved cell cryopreservation solution was taken out of the −80° C. refrigerator, and was immediately put in a 37° C. water bath for rapid and continuous shaking, and was completely melted within one minute. Fresh medium was added to the 15 mL centrifuge tube in advance, and the cell solution was added to the centrifuge tube in a biological safety cabinet. A centrifuge tube of the same quality was taken and placed symmetrically in a centrifuge, centrifuged at a low speed at 1200 rpm for 5 min. After centrifugation, the supernatant was removed, and an appropriate amount of medium was slowly added along the tube wall. After the cells were evenly dispersed by blowing gently, the cell suspension was pipette and added to the culture bottle prepared in advance. The state and distribution of the cells in the early stage of recovery were observed under a microscope. The culture bottle was placed in a 5% CO2 incubator and incubated at 37° C., and the recovery time was recorded. • 2) Cell subculture: Under the microscope, if the cell density in the field of view reaches 80%-90%, the cells can be subcultured. Adherent cells need to be digested with trypsin. […]

CHO cells = test: In vitro transfection of CHO cells with EGFP mRNA LNP preparation; format: cell-based, Chinese hamster
Source text: (§1) The description is based on peripheral blood mononuclear cells PBMC (Shanghai Oribiotech Co., Ltd.), human peripheral blood leukemia T cell Jurkat (ATCC), tumor infiltrating lymphocyte TIL (isolated from resected tumor tissue of a liver cancer patient, the preparation method refers to CN114763530A), mouse bone marrow-derived dendritic cells DC2.4 (Cell Bank of the Chinese Academy of Sciences), and Chinese hamster ovary cells CHO (ATCC) were used as verified cell lines for liposome transfection. PBMC, Jurkat, and TIL cells grew in suspension, while DC2.4 and CHO cells grew by adherent culture. All the operation steps of cell culture must strictly abide by the prescribed procedures, and sterile reagents is used to perform aseptic operations under a sterile workbench. The main steps are as follows: • 1) Cell recovery: the preserved cell cryopreservation solution was taken out of the −80° C. refrigerator, and was immediately put in a 37° C. water bath for rapid and continuous shaking, and was completely melted within one minute. […] The culture bottle was placed in a 5% CO2 incubator and incubated at 37° C., and the recovery time was recorded. • 2) Cell subculture: Under the microscope, if the cell density in the field of view reaches 80%-90%, the cells can be subcultured. […]

Jurkat cells = test: In vitro transfection of Jurkat cells with EGFP mRNA LNP preparation; format: cell-based, human
Source text: as §1

[1] = after in vitro transfection, ApoE4 did not affect viability

CCCCCCCCCCCCC(O)CN(CCOCCN(CCOCCN(CC(O)CCCCCCCCCCCC)CC(O)CCCCCCCCCCCC)CCN1CCN(CCOCCN(CC(O)CCCCCCCCCCCC)CC(O)CCCCCCCCCCCC)CC1)CC(O)CCCCCCCCCCCC (stereo not shown) [B-C14]
cell viability by flow cytometry (FIG. 1) (TIL cells; [1]): high viability | transfection efficiency (FIG. 2) (TIL cells; in the absence of AopE4): low transfection efficiency | change of transfection efficiency with ApoE4 (FIG. 3) (TIL cells; with ApoE4 versus without): increased | cell viability by flow cytometry (FIG. 1) (CHO cells; after in vitro transfection): high viability | transfection efficiency (FIG. 2) (CHO cells; in the absence of AopE4): high transfection efficiency | cell viability by flow cytometry (FIG. 1) (Jurkat cells; [1]): high viability | transfection efficiency (FIG. 2) (Jurkat cells; in the absence of AopE4): high transfection efficiency
